Experimental data as given in patent publication US12685312B2, “Sulfonamide apyrase inhibitors” (Texas Crop Science, Inc., priority 2022, dated 2026).

Test system: apyrase
Assay: Screen for apyrase inhibitors (Method 1, in vitro phosphate-release absorbance assay)
Assay type: biochemical
Conditions: inhibitor conc at 1 mM stock, 1 hr room temperature, absorbance 630 nm; rounded average of two assay results
How it was run: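 Phosphate-release colorimetric assay (Windsor method) in 60 mM Hepes, 3 mM MgCl2, 3 mM CaCl2, 3 mM ATP, pH 6.5, with compound or DMSO control added. Released phosphate developed with ammonium molybdate and ascorbic acid/TCA, then stopped with citrate/acetic acid.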

Row | SMILES | % Inhibition of Apyrase
1 | O=C(Nc1cccc(C(F)(F)F)c1)c1cccc(NS(=O)(=O)c2ccc(Cl)s2)c1 [I-634, 3-((5-chlorothiophene)-2-sulfonamido)-N-(3-(trifluoromethyl)phenyl)benzamide] | 59%
2 | O=C(Nc1nc2c(s1)CCC2)c1cccc(NS(=O)(=O)c2ccc3c(c2)OCCO3)c1 [I-637, N-(5,6-dihydro-4H-cyclopenta[d]thiazol-2-yl)-3-((2,3-dihydrobenzo[b][1,4]dioxine)-6-sulfonamido)benzamide] | 57%
3 | O=C(Nc1cccc2ncccc12)c1cccc(NS(=O)(=O)c2cccs2)c1 [I-638, N-(quinolin-5-yl)-3-(thiophene-2-sulfonamido)benzamide] | 57%
4 | Cc1ccc(C)c(S(=O)(=O)Nc2cccc(C(=O)Nc3ccc(F)cn3)c2)c1 [I-641, 3-((2,5-dimethylphenyl)sulfonamido)-N-(5-fluoropyridin-2-yl)benzamide] | 55%
5 | O=C(Nc1cccc(C(F)(F)F)c1)c1cccc(NS(=O)(=O)c2cccs2)c1 [I-642, 3-(thiophene-2-sulfonamido)-N-(3-(trifluoromethyl)phenyl)benzamide] | 55%
6 | O=C(Nc1cccnc1)c1cccc(NS(=O)(=O)c2ccc(Br)cc2)c1 [I-648, 3-((4-bromophenyl)sulfonamido)-N-(pyridin-3-yl)benzamide] | 51%
7 | Cc1ccc(S(=O)(=O)Nc2cccc(C(=O)Nc3nc4ccccc4[nH]3)c2)cc1F [I-649, N-(1H-benzo[d]imidazol-2-yl)-3-((3-fluoro-4-methylphenyl)sulfonamido)benzamide] | 50%
8 | Cc1csc(NC(=O)c2cccc(NS(=O)(=O)c3ccc4c(c3)OCCCO4)c2)n1 [I-650, 3-((3,4-dihydro-2H-benzo[b][1,4]dioxepine)-7-sulfonamido)-N-(4-methylthiazol-2-yl)benzamide] | 50%
9 | Cc1ccnc(NC(=O)c2cccc(NS(=O)(=O)c3ccc(C)c(F)c3)c2)c1 [I-651, 3-((3-fluoro-4-methylphenyl)sulfonamido)-N-(4-methylpyridin-2-yl)benzamide] | 50%
10 | Cn1nc2c(c1NC(=O)c1cccc(NS(=O)(=O)c3ccc(Br)cc3)c1)CCC2 [I-653, 3-((4-bromophenyl)sulfonamido)-N-(2-methyl-2,4,5,6-tetrahydrocyclopenta[c]pyrazol-3-yl)benzamide] | 44%
11 | COc1ccc(NC(=O)c2cccc(NS(=O)(=O)c3cc(Cl)ccc3Cl)c2)cn1 [I-654, 3-((2,5-dichlorophenyl)sulfonamido)-N-(6-methoxypyridin-3-yl)benzamide] | 42%
12 | Cc1ccc(NC(=O)c2cccc(NS(=O)(=O)c3ccc(C)c(F)c3)c2)nc1 [I-655, 3-((3-fluoro-4-methylphenyl)sulfonamido)-N-(5-methylpyridin-2-yl)benzamide] | 35%
13 | O=C(Nc1ccccc1)c1cccc(NS(=O)(=O)c2cccs2)c1 [I-658, N-phenyl-3-(thiophene-2-sulfonamido)benzamide] | 32%

Continued, values first:

Row | % Inhibition of Apyrase | SMILES
14 | 66% | O=C(Nc1cccc2cccnc12)c1cccc(NS(=O)(=O)c2cccs2)c1 [I-630, N-(quinolin-8-yl)-3-(thiophene-2-sulfonamido)benzamide]
15 | 62% | O=C(Nc1cccc(Cl)c1)c1cccc(NS(=O)(=O)c2cccs2)c1 [I-631, N-(3-chlorophenyl)-3-(thiophene-2-sulfonamido)benzamide]
16 | 62% | O=C(Nc1ccc2c(c1)CCC2)c1cccc(NS(=O)(=O)c2cccs2)c1 [I-632, N-(2,3-dihydro-1H-inden-5-yl)-3-(thiophene-2-sulfonamido)benzamide]
17 | 60% | Cc1cnc(NC(=O)c2cccc(NS(=O)(=O)c3ccc(Cl)c(Cl)c3)c2)[nH]1 [I-633, 3-((3,4-dichlorophenyl)sulfonamido)-N-(5-methyl-1H-imidazol-2-yl)benzamide]
18 | 58% | O=C(Nc1nc2ccccc2[nH]1)c1cccc(NS(=O)(=O)c2ccc3c(c2)OCCCO3)c1 [I-635, N-(1H-benzo[d]imidazol-2-yl)-3-((3,4-dihydro-2H-benzo[b][1,4]dioxepine)-7-sulfonamido)benzamide]
19 | 58% | Cc1ccc(NC(=O)c2cccc(NS(=O)(=O)c3cccs3)c2)cc1C [I-636, N-(3,4-dimethylphenyl)-3-(thiophene-2-sulfonamido)benzamide]
20 | 56% | O=C(Nc1nccs1)c1cccc(NS(=O)(=O)c2cc(Cl)ccc2Cl)c1 [I-639, 3-((2,5-dichlorophenyl)sulfonamido)-N-(thiazol-2-yl)benzamide]
21 | 56% | CCOc1ccc(S(=O)(=O)Nc2cccc(C(=O)Nc3ccc(C)cn3)c2)cc1 [I-640, 3-((4-ethoxyphenyl)sulfonamido)-N-(5-methylpyridin-2-yl)benzamide]
22 | 55% | O=C(Nc1cccc(C(F)(F)F)c1)c1cccc(NS(=O)(=O)c2ccc(Cl)nc2)c1 [I-643, 3-((6-chloropyridine)-3-sulfonamido)-N-(3-(trifluoromethyl)phenyl)benzamide]
23 | 54% | O=C(Nc1nccs1)c1cccc(NS(=O)(=O)c2ccc3c(c2)OCCCO3)c1 [I-644, 3-((3,4-dihydro-2H-benzo[b][1,4]dioxepine)-7-sulfonamido)-N-(thiazol-2-yl)benzamide]
24 | 54% | COc1ccc(NC(=O)c2cccc(NS(=O)(=O)c3ccc(Br)cc3)c2)cn1 [I-645, 3-((4-bromophenyl)sulfonamido)-N-(6-methoxypyridin-3-yl)benzamide]
25 | 54% | Cc1ccc(NC(=O)c2cccc(NS(=O)(=O)c3ccc(Br)cc3)c2)nc1 [I-646, 3-((4-bromophenyl)sulfonamido)-N-(5-methylpyridin-2-yl)benzamide]
26 | 53% | CCCCc1nnc(NC(=O)c2cccc(NS(=O)(=O)c3ccc(C)c(F)c3)c2)s1 [I-647, N-(5-butyl-1,3,4-thiadiazol-2-yl)-3-((3-fluoro-4-methylphenyl)sulfonamido)benzamide]
27 | 45% | O=C(Nc1nnc(C2CC2)s1)c1cccc(NS(=O)(=O)c2ccccc2)c1 [I-652, N-(5-cyclopropyl-1,3,4-thiadiazol-2-yl)-3-(phenylsulfonamido)benzamide]
28 | 34% | O=C(Nc1nc2ccccc2[nH]1)c1cccc(NS(=O)(=O)c2ccc3c(c2)OCCO3)c1 [I-656, N-(1H-benzo[d]imidazol-2-yl)-3-((2,3-dihydrobenzo[b][1,4]dioxine)-6-sulfonamido)benzamide]
29 | 34% | O=C(Nc1[nH]ncc1-c1ccccc1)c1cccc(NS(=O)(=O)c2ccc(F)c(F)c2)c1 [I-657, 3-((3,4-difluorophenyl)sulfonamido)-N-(4-phenyl-1H-pyrazol-5-yl)benzamide]
30 | 31% | O=C(Nc1cnccn1)c1cccc(NS(=O)(=O)c2c(F)cccc2F)c1 [I-659, 3-((2,6-difluorophenyl)sulfonamido)-N-(pyrazin-2-yl)benzamide]
31 | 29% | O=C(Nc1nccs1)c1cccc(NS(=O)(=O)c2ccc3c(c2)OCCO3)c1 [I-660, 3-((2,3-dihydrobenzo[b][1,4]dioxine)-6-sulfonamido)-N-(thiazol-2-yl)benzamide]
